In patent US20150250826A1, “ISOLATION AND CHARACTERIZATION OF MUSCLE REGENERATING CELLS” (Joslin Diabetes Center, Inc., priority 2012, published 2015):

Tests used:
Type in all cases: cell-based
[1] = system: mouse Kras; p16p19null rhabdomyosarcoma cell line; assay: In vitro growth assay (MTT) in mouse Kras; p16p19null rhabdomyosarcoma cell line; details: 48 hours
Excerpt: (§1) FIG. 8: In vitro screening of candidate targets. Sarcoma cells were exposed to increasing concentrations of Torin (10, 50, 250 nMol), Rapamycin (10, 50, 100 nMol), RL0061425 (10, 50, 100, 500, 1000 nMol), SB525334 (1, 10, 50, 100, 500 nMol), SD208 (10, 50, 100, 500, 1000 nMol), and Ethanol and DMSO (as a control).
(§2) To begin to evaluate the effects of candidate target genes in sarcoma cells, we have established in vitro assays in which the proliferation of sarcoma cell lines exposed to selected chemical compounds is measured by MTT (3-(4,5-Dimethylthiazol-2-yl)-2,5-diphenyltretrazolium bromide) assay at defined time points. All experiments are carried out in low-passage cell lines established from modeled Kras rhabdomyosarcomas of satellite cell origin. For comparison, we also studied the effects of these compounds in the human embryonal rhabdomyosarcoma cell line RD. In these studies, we focused first on a small set of readily available chemical compounds (obtained from D. Guertin and L. Rubin at the University of Massachusetts and the Harvard Stem Cell Institute, respectively), whose targets include the TGFβ and mammalian target of rapamycin (mTOR) signaling pathways. As discussed above, the TGFβ pathway was implicated in sarcoma pathogenesis by our prior bioinformatics analyses. mTOR was tested as well because Ras pathway activation has been reported to promote mTOR signaling (Carriere, A., Romeo, Y., Acosta-Jaquez, H. A., Moreau, J., Bonneil, E., Thibault, P. Fingar, D. C., Roux, P. P., ERK1/2 Phosphorylate Raptor to Promote Ras-dependent Activation of mTOR Complex 1 (mTORC1). J Biol Chem 286 (1), 567 (2011)), and many genes on our list appear to interact with this signaling pathway (data not shown). Finally, gene ontology analyses of the 146 sarcoma-associated genes discussed above identified 61 genes that function in cell growth and proliferation (i.e., key cellular activities often regulated by mTOR).
(§3) Cell lines from the modeled sarcomas were exposed to graded concentrations of mTOR inhibitors (Rapamycin, Torin) or TGF inhibitors (RL0061425, SB525334, SD208). […]

[2] = system: mouse Kras; p16p19null sarcoma line; assay: In vitro growth assay (MTT) in mouse Kras; p16p19null sarcoma line; details: 96 hours
Excerpt: as §1, §2, §3

[3] = system: human rhabdomyosarcoma cell line RD; assay: In vitro growth assay (MTT) in human rhabdomyosarcoma cell line RD; details: 96 hours
Excerpt: as §1
To begin to evaluate the effects of candidate target genes in sarcoma cells, we have established in vitro assays in which the proliferation of sarcoma cell lines exposed to selected chemical compounds is measured by MTT (3-(4,5-Dimethylthiazol-2-yl)-2,5-diphenyltretrazolium bromide) assay at defined time points. All experiments are carried out in low-passage cell lines established from modeled Kras rhabdomyosarcomas of satellite cell origin. For comparison, we also studied the effects of these compounds in the human embryonal rhabdomyosarcoma cell line RD. In these studies, we focused first on a small set of readily available chemical compounds (obtained from D. Guertin and L. Rubin at the University of Massachusetts and the Harvard Stem Cell Institute, respectively), whose targets include the TGFβ and mammalian target of rapamycin (mTOR) signaling pathways. […]

[4] = tested at 10, 50, 100, 500, 1000 nMol

Compound: Torin
- cell growth (fold-increase in MTT-uptake) ([1]; 250 nMol): reduced the growth
- cell growth (fold-increase in MTT-uptake) ([2]; 250 nMol): reduced the growth
- cell growth (fold-increase in MTT-uptake) ([3]; 250 nMol): reduced the growth

Compound: Fc1ccc(Cl)cc1-c1nc(Nc2ccncc2)c2nccnc2n1 [SD208]
- concentration at which growth was inhibited (MTT-uptake) [1, 4]: ≥ 500 nmol
- concentration at which growth was inhibited (MTT-uptake) [2, 4]: ≥ 500 nmol

Compound: Cc1cccc(-c2[nH]c(C(C)(C)C)nc2-c2ccc3nccnc3c2)n1 [SB525334]
- cell growth (fold-increase in MTT-uptake) ([1]; 1, 10, 50, 100, 500 nMol): no major effect
- cell growth (fold-increase in MTT-uptake) ([2]; 1, 10, 50, 100, 500 nMol): no major effect
- cell growth (fold-increase in MTT-uptake) ([3]; 1, 10, 50, 100, 500 nMol): no major effect
